Key:
Format in all cases: cell-based, human
[1] = test system: mesenchymal stem cells; assay: 96-well plate freezing, post-thaw scaled raw recovery (calcein-AM/PI); conditions: 10% DMSO at 1° C./min, control
Excerpt: FIG. 2 and FIG. 3 relate to a three-component TGE solution tested with Jurkat cells. […] These components were selected based on pre-screening experiments performed to identify combinations with high potential recovery. The DE algorithm was programmed to output 27 vector solutions per generation with a weight=0.85 and a crossover=1. Experimental testing and result normalization was similar to the methods described above.
In both screening and DE algorithm experiments, cells were frozen in 96-well plates to limit the number of cells and volumes of reagent necessary, and to increase the number of samples that could be tested at one time. Solutions were made at 2× their final concentration in distilled H2O (diH2O). […]
After 96 well plates were thawed, calcein-acetoxymethyl (AM)/propidium iodide was added to each well and the wells were covered from light and placed in a 37° C. incubator for 30 minutes to allow the live cells to cleave calcein-AM. The plates were then analyzed for fluorescence on a plate reader. Raw fluorescence values were used to calculate the number of live and dead cells present in each well by correlating to a control curve of unfrozen cells. The live cell recovery was calculated by dividing the number of live cells present in thawed samples (calcein-AM plate reader fluorescence) by the number of live cells seeded pre-freeze (AO/PI counts). […]

[2] = test system: H9-MSCs; assay: Gene expression by qRT-PCR immediately post-thaw; conditions: GAPDH internal control, FIG. 23
Method: Certain genes within select gene categories were analyzed using qRT-PCR. H9-MSCs subjected to different freezing approaches were assayed immediately post-thaw for the expression of genes related to trophic factor secretion such as HGF, VEGF, FGF2, CXCL12 (SDF-1α), mesodermal lineage markers TWIST1, TWIST2 (DERMO1), MSX2, the anti-apoptotic marker BCL2, surface markers for cell adhesion such as CD106 and CD54, the osmotic regulator marker GAL-1, and stress-response markers such as EGR1 and NFE2L2 (NRF2).
Pellets of thawed samples described above were resuspended in QIAZOL lysis agent (Qiagen, Hilden, Germany) for further RNA isolation and processing. […] The purified RNA was quantified using a NANODROP 2000 (Therm Fisher Scientific, Waltham, Mass.) device to determine concentration.
For qRT-PCR studies, 800 ng of RNA was used for reverse transcription to make cDNA using SuperScript III First-Strand Synthesis System (Thermo Fisher Scientific, Waltham, Mass.). cDNA was diluted to a concentration of 4 ng/μl and real-time qPCR was performed with 10 ng cDNA per 10 μl reaction with QuantiTect SYBR Green PCR Kit (Qiagen, Hilden, Germany) on CFX384 Real-Time PCR detection system (Bio-Rad Laboratories, Inc., Hercules, Calif.). […] were analyzed using the comparative CT method (Schmittgen et al., 2008. Nat Protoc 3:1101-1108) with GAPDH as an internal control gene.

[3] = test system: MSCs; assay: High throughput factorial screening with Linear Mixed Effects statistical analysis of recovery; conditions: statistical analysis of sugar and cooling rate
Method: In another evaluation, cells were combined with factorial combinations of the components listed in Table 5, using one component from each category. Plates including cells and solutions were frozen at cooling rates of 1′C/min, 3′C/min, 5′C/min, or 10′C/min.
Recovery was calculated by dividing the number of live cells post thaw—calculated using a control curve correlating calcein-acetoxymethyl (AM) fluorescence to cell count—by the number of live cells seeded pre-freeze (AO/PI counts taken prior to freezing). Recovery was normalized by dividing by the DMSO recovery on each plate, then multiplying by a standard DMSO recovery for each cooling rate. This normalized recovery was used to compare samples between different plates and different cooling rates.
Statistical analysis of the data was performed using a Linear Effects Model. The model associated with best fit was determined using Bayesian Information Criteria. […] The ten best combinations for Jurkats are summarized in Table 6 below, while the eight best combinations for MSCs are summarized in Table 7.
To assess the importance of the four explanatory variables of interest (Sugar, Rate, Additive and Alcohol), without neglecting the variation between each batch and between each plate within the batches, we sought to find the best Linear Mixed Effects (LME) model. With yi the i'th outcome of the response, Xi the corresponding values of the covariates, the LME model is defined as
To select the most fitting model, we performed backward elimination based on the Bayesian Information Criterion (BIC) starting with a model that includes all variables and second order interactions. Furthermore, we included two random variables, one to catch the effect of the batch, and one to catch the effect of each plate within the batch—i.e., the full model is: […]

| SMILES | recovery for MSCs [1] | CXCL12 expression [2] | TWIST2 expression [2] | cooling rate at which cells performed better with the sugar [3] |
| --- | --- | --- | --- | --- |
| C[S+](C)[O-] [DMSO, dimethyl sulfoxide] | 21% | notable change | elevated | – |
| OC[C@H]1O[C@@](CO)(O[C@H]2O[C@H](CO)[C@@H](O)[C@H](O)[C@H]2O)[C@@H](O)[C@@H]1O [Sucrose] | – | – | – | 3 °C and 5° C./min |

Source: patent US20220030850A1, “CRYOPRESERVATIVE COMPOSITIONS AND METHODS” (REGENTS OF THE UNIVERSITY OF MINNESOTA, priority 2015, published 2022)
